From US20210102200A1, “SMALL MOLECULE TARGETED RECRUITMENT OF A NUCLEASE TO RNA” (The Scripps Research Institute, priority 2018, published 2021)
pKd: −log10 of the molar value.

Legend:
pre-miR-210 = pre-miR-210 levels / cleavage in hypoxic MDA-MB-231 cells by RT-qPCR; type: cell-based
Protocol: (§1) MDA-MB-231 (HTB-26; ATCC) cells were cultured in Roswell Park Memorial Institute (RPM I) 1640 media with L-glutamine & 25 mM HEPES (Corning) supplemented with 10% fetal bovine serum (FBS) (Sigma) and 1×Penicillin Streptomycin Solution (Corning). Cells cultured in normoxia were maintained at 37° C. in ambient atmosphere (˜21% O2) with 5% CO2. Cells cultured in hypoxia were maintained at 37° C., <1% O2 in a nitrogen filled hypoxic chamber (Billups-Rothenberg, Inc.), and 5% CO2. Cells were directly purchased from ATCC, but were not authenticated.
(§2) For compound treatment (TGP-210, TGP-210-RL, LNA-210, Scr-LNA), compound stocks in DMSO or water were diluted in growth medium and added to cells for 24-48 h. […]
(§3) MDA-MB-231 cells were treated in normoxic or hypoxic conditions for 24-48 h, as described above in the Experimental Model and Subject Details section. […] RNA expression levels were determined using the ΔΔCt method and normalized using 18S ribosomal RNA or U6 small nuclear RNA as housekeeping genes. […] Upon treatment with chimeric compound TGP-210-RL, relative cleavage levels were calculated according to equation 1A (Eq. 1A) in order to control for the effect of parent compound TGP-210, on pre-miR-210 expression: […]

mature miR-210 = test: Mature miR-210 levels in hypoxic MDA-MB-231 cells by RT-qPCR; type: cell-based
Protocol: as §1, §2, §3

pre-miR-210 mimic = test: Microscale thermophoresis binding, miR-210 Hairpin RNA; details: MST
Protocol: (§4) MST fluorescent measurements were performed on a Monolith NT.115 system (NanoTemper Technologies) using the fluorescence of a 5′-Cy5 labeled miR-210 Hairpin RNA (5′—Cy5 […]) (SEQ ID NO: 11), a 5′-Cy5 miR-210 Mutant RNA (5′—Cy5 […]) (SEQ ID NO: 12), or a 5′ Cy5 DNA Hairpin (5′—Cy5 […]) (SEQ ID NO: 13) which were purchased from IDT with RNase-free HPLC purification and used without further purification. The RNA (5 nM) was prepared in 1×MST Buffer (8 mM Na2HPO4, 190 mM NaCl, 1 mM EDTA, and 0.05% (v/v) Tween-20) and folded by heating at 60° C. for 5 min, and slowly cooling to room temperature. Compounds (TGP-210 or TGP-210-RL) were diluted in 1×MST Buffer and then were added to a final concentration of 20 μM, followed by 1:2 dilutions in 1×MST Buffer containing 5 nM RNA. Alternatively, RNase L in 1×MST Buffer was added to a final concentration of 50 nM in addition to compound and RNA. […] Fluorescence measurements (Ex: 605-645 nm, Em: 680-685 nm) were performed at 20% LED and 80% MST power, with a Laser-On time of 30 s and Laser-Off time of 5 s. The data were analyzed by thermophoresis analysis and fitted by the quadratic binding equation in MST analysis software (NanoTemper Technologies). Dissociation constants were then determined by curve fitting using a single-site model.

MDA-MB-231 cells = test: Caspase 3/7 activity in MDA-MB-231 cells; type: cell-based
Protocol: Approximately 5,000 MDA-MB-231 cells were plated into white, cell-culture treated, 96-well plates (Corning). At ˜60% confluency, cells were treated with dilutions of LNA-210, Scr-LNA, TGP-210, or TGP-210-RL and then placed under hypoxic or normoxic conditions. After 48 h, caspase 3/7 activity was measured using a Caspase-Glo 3/7 kit (Promega) according to the manufacturer's protocol. Alternatively, MDA-MB-231 cells were transfected with a plasmid overexpressing pre-miR-210 (Genecopoeia; HmiR0167-MR04) using Lipofectamine 2000 (Invitrogen). After 5 h of transfection, cells were plated into white, cell-culture treated 96-well plates (Corning) and then treated as described above. Fold change in Caspase activity was calculated by normalizing treated samples to the untreated samples after subtracting background sample values.

DNA = test: Microscale thermophoresis binding, DNA Hairpin
Protocol: as §4

[1] = tested on: triple negative breast cancer; details: triple negative breast cancer mouse model; cited from earlier work

## Targapremir-210 [TGP-210]
pre-miR-210; constant TGP-210-RL, increasing amounts of TGP-210
  Cleavage of pre-miR-210 by TGP-210-RL upon addition of TGP-210: caused a decrease in cleavage of pre-miR-210
pre-miR-210; hypoxic MDA-MB-231 cells
  pre-miR-210 levels: increase
Mature miR-210
  Levels of mature miR-210: decreased
pre-miR-210 mimic
  pKd: 6.80
MDA-MB-231 cells; hypoxic MDA-MB-231 cells, 48 h, TGP-210-RL at 500 nM
  Apoptotic stimulation (caspase activity): similar
MDA-MB-231 cells; miR-210 overexpressed background
  Apoptosis upon miR-210 overexpression: no longer stimulated apoptosis
DNA
  Selectivity window between DNA and the Dicer site in pre-miR-210: 5 fold
DNA; MST
  pKd: 6.21
[1]
  Tumor growth: inhibited tumor growth
